{"source": "patent US20230292776A1", "about": "“GAS PHASE TREATMENT OF PRODUCE” (priority 2022, published 2023)", "key": {"avocados": {"tested_on": "avocados", "design": "species or system avocado", "details": "in vivo", "procedure": "Example 11. The ripening characteristics of avocados exposed to AITC vapor was analyzed. Treatment groups consisted of avocados that were: exposed to the vapor of 125 μL of AITC in a Petri dish for 30 min and 18 hours; exposed to the vapor of 500 μL of AITC for 30 minutes and 18 hours; untreated and kept 18 hours in a bin; and treated with a coating agent. Two sets of the preceding test groups were studied. One set was treated when cold along with coated fruit (i.e., fruit treated with a coating agent (95 wt % glyceryl monostearate and 5 wt % sodium stearate) and another set was treated when warm (one day out of cold storage). Daily measurements were made of respiration and firmness (using a durometer). At the start of the test, the avocados were placed in cold storage. After one day, the cold treated avocados were treated with AITC directly after removal from cold storage. The coated group was treated at this time. The warm treated avocados were allowed to warm to room temperature. On the second day, measurements were begun on the cold treated avocados and AITC treatments began on the warm treated samples. On the third day, measurements began on the warm treated groups. […]\nExample 23: The ripening characteristics of avocados exposed to AITC vapor, a coating agent (95 wt % glyceryl monostearate and 5 wt % sodium stearate), and AITC plus the coating agent was analyzed. […]"}, "Botrytis cinerea (Bc)": {"tested_on": "Botrytis cinerea (Bc)", "experiment": "Antifungal activity of AITC vapor and coating agent against Botrytis cinerea (Bc) in strawberries", "format": "in vivo", "details": "30 minutes", "procedure": "Example 13. The antifungal activity of AITC vapor against Bc in strawberries was tested. All samples were wounded by making a 3 mm deep puncture in the skin. Samples were infected by dispensing 1000 Bc spores suspended in 10 μL of water in the wound. Samples were then incubated at ambient temperature, imaged, and assessed for mold over the following 3 days. The test group consisted of strawberries that were: uninfected and untreated; infected and untreated; and exposed for 30 minutes to the vapor of 125 uL AITC dispensed on Whatman filter paper. […] The infection rates in the initially uninfected sample indicate that the step involving the initial infection of the wound by dispensing the Bc spores may not be necessary to promote infection in the test groups.\nExample 14. The antifungal activity of a range of AITC vapor concentrations against Bc in strawberries was tested. Samples were treated by exposure for 30 minutes to the vapor of a range of volumes of AITC disposed on a filter paper disc, then incubated at ambient temperature, imaged, and assessed for mold over the following 6 days. Test groups consisted of strawberries that were untreated and strawberries exposed to the vapor of 62.5 μL, 125 μL, 250 μL, and 500 μL of AITC. […] On day 6, 83% of the untreated control strawberries were infected, 100% of the 62.5 μL AITC dose strawberries were infected, 13% of the 125 μL AITC dose strawberries were infected, and 0% of the 250 and 500 μL AITC dose strawberries were infected. For strawberries incubated at room temperature, all of the AITC doses above 62.5 μL were effective at preventing mold, with doses above 125 μL substantially eliminating mold.\nExample 15. The antifungal activity of AITC vapor under different exposure conditions against Bc in strawberries was tested. Test groups consisted of strawberries that were untreated and treated by exposure for 30 minutes to the vapor of 125 μL of AITC disposed on a filter paper disc. Test groups were then incubated in either open or closed containers at 4° C., imaged, and assessed for mold over the following 14 days. […] All samples were free of mold through 7 days. On day 12, 16.7% of the open air controls were infected, 29.2% of closed container controls were infected, and 0% of the AITC treated were infected. On day 14, 33.3% of the open air controls were infected, 41.7% of closed container controls were infected, 0% of the open air AITC treated were infected, and 4.2% of the closed container AITC treated were infected. For strawberries incubated at 4° C., AITC treatment was effective in reducing the incidence of mold over a two week period. While ⅓ of the open air untreated samples were infected, none of the open air AITC-treated were infected. Over 40% of the closed container controls were infected. A single strawberry was infected in the closed container AITC-treated test group.\nExample 16. The antifungal activity of AITC vapor against Bc in strawberries treated with a coating agent (95 wt % glyceryl monostearate and 5 wt % sodium stearate) and exposed to vapor in clamshells was tested. Test groups consisted of strawberries that were: untreated; dipped in 40 g/L solution of the coating agent; exposed for 30 minutes to the vapor of 125 μL of AITC disposed on a filter paper disc; and dipped in 40 g/L solution of the coating agent and exposed for 30 minutes to the vapor of 125 μL of AITC disposed on a filter paper disc. Samples were treated, incubated at ambient temperature, imaged, and assessed for mold over the following 4 days. […] On day 3, 52.8% of the controls were infected, 42.1% of the coating agent were infected, 26.3% of the AITC were infected, and 9.3% of the coating agent+AITC were infected. On day 4, 88.9% of the controls were infected, 76.3% of the coating agent were infected, 71% of the AITC were infected, and 34.9% of the coating agent+AITC were infected. […] Bowl dipping in the coating solution also presented challenges for drying around the calyx.\nExample 17. […]"}}, "data": [{"smiles": "C=CCN=C=S", "note": "[AITC, allyl isothiocyanate]", "values": [{"measurement": "effect on avocado peel and firmness", "setting": "avocados", "result": "causes darkening and thickening of the avocado peel and a prolonged feeling a firmness"}, {"measurement": "visible mold on strawberries", "setting": "Botrytis cinerea (Bc); Example 13, 125 uL, after 24 hours", "result": "no mold was visible"}, {"measurement": "fraction of samples showing visible mold", "setting": "Botrytis cinerea (Bc); Example 13, 125 uL, after 48 hours", "result": "⅛"}, {"measurement": "fraction of samples showing visible mold", "setting": "Botrytis cinerea (Bc); Example 13, 125 uL, after 72 hours", "result": "¼"}, {"measurement": "strawberries infected", "setting": "Botrytis cinerea (Bc); Example 14, 62.5 μL dose, day 6, ambient temperature", "result": 100, "unit": "%"}, {"measurement": "strawberries infected", "setting": "Botrytis cinerea (Bc); Example 14, 125 μL dose, day 6, ambient temperature", "result": 13, "unit": "%"}, {"measurement": "strawberries infected", "setting": "Botrytis cinerea (Bc); Example 14, 250 and 500 μL dose, day 6, ambient temperature", "result": 0, "unit": "%"}, {"measurement": "strawberries infected", "setting": "Botrytis cinerea (Bc); Example 15, 125 μL, 4° C., closed container, day 14", "result": 4.2, "unit": "%"}, {"measurement": "strawberries infected", "setting": "Botrytis cinerea (Bc); Example 15, 125 μL, 4° C., open air, day 14", "result": 0, "unit": "%"}, {"measurement": "strawberries infected", "setting": "Botrytis cinerea (Bc); Example 15, 125 μL, incubated at 4° C., day 12", "result": 0, "unit": "%"}, {"measurement": "strawberries infected", "setting": "Botrytis cinerea (Bc); Example 16, clamshells, coating agent 40 g/L dip, AITC 125 μL, day 3", "result": 26.3, "unit": "%"}, {"measurement": "strawberries infected", "setting": "Botrytis cinerea (Bc); Example 16, clamshells, coating agent 40 g/L dip, AITC 125 μL, day 4", "result": 71, "unit": "%"}]}]}
